Test results from ChEMBL document CHEMBL1212908, “Flavonoids in the poisonous plant Oxytropis falcata” (J Nat Prod, 2010).

How the values were obtained:
HL-60 = assay: Cytotoxicity against human HL60 cells by MTT assay; type: functional, cell-based
[1] = test system: Radical scavenging activity; assay: Antioxidant activity assessed as DPPH free radical scavenging activity after 30 mins; type: functional

Molecule	IC50 (HL-60) [µM]	IC20 [1] [µM]
COc1ccc([C@@H]2COc3cc(O)c(C(c4ccc(O)cc4O)C(O)Cc4ccc(O)cc4)cc3C2)c(O)c1OC (some centres not stated) [OXYTROPISOFLAVAN A]	> 50	> 50
COc1ccc([C@@H]2COC3=CC(=O)CC[C@]3(O)C2)c(O)c1OC [OXYTROPISOFLAVAN B]	> 50	> 50
COc1c(O)cc2c(c1OC)O[C@H]1c3ccc(O)cc3OC[C@@H]21	> 50	3.8
VITAMIN E	–	7.6
